From patent US8415272B2, “Quinoline derivatives and their use as fungicides” (Syngenta Crop Protection LLC, priority 2008, dated 2013)

Experiments:
[1] = system: Erysiphe graminis f.sp. tritici; assay: Leaf disk assay, Erysiphe graminis f.sp. tritici (wheat powdery mildew), preventive; format: in vivo; settings: Blumeria graminis, foliar, 96 h, wheat leaf segments, assessed four days after inoculation, read-out: control of fungal infection, Erysiphe graminis f.sp. tritici
Outline: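 Wheat leaf segments on agar were sprayed with compound at 200 ppm (DMSO stock diluted in water). After 12–24 h drying they were inoculated with powdery mildew spores. Preventive activity was scored 4 days after inoculation.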

Fusarium culmorum = assay: Growth inhibition in nutrient broth, Fusarium culmorum (root rot), photometric; format: cell-based; settings: 48 h, read-out: control of fungal infection, Fusarium culmorum
Outline: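 Fusarium culmorum conidia in potato dextrose broth were added to compounds in DMSO. Plates were incubated at 24 C for 48 hrs, with growth inhibition read photometrically. […]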

Pyrenophora teres = assay: Leaf disk assay, Pyrenophora teres (barley net blotch), preventive; format: in vivo; settings: foliar, 96 h, barley leaf segments, assessed four days after inoculation, read-out: control of fungal infection, Pyrenophora teres
Description: The compounds were tested in a leaf disk assay, with methods described below. The test compounds were dissolved in DMSO and diluted into water to 200 ppm. In the case of the test on Pythium ultimum, they were dissolved in DMSO and diluted into water to 20 ppm. Pyrenophora teres (barley net blotch): Barley leaf segments were placed on agar in a 24-well plate and sprayed with a solution of the test compound. After allowing to dry completely, for between 12 and 24 hours, the leaf disks were inoculated with a spore suspension of the fungus. After appropriate incubation the activity of a compound was assessed four days after inoculation as preventive fungicidal activity.

Septoria nodorum = assay: Leaf disk assay, Septoria nodorum (wheat glume blotch), preventive; format: in vivo; settings: Parastagonospora nodorum, foliar, 96 h, wheat leaf segments, assessed four days after inoculation, read-out: control of fungal infection, Septoria nodorum
Septoria tritici = assay: Growth inhibition in nutrient broth, Septoria tritici (leaf blotch), photometric; format: cell-based; settings: Zymoseptoria tritici, PDB broth, 24 C, 72 hrs, read-out: control of fungal infection, Septoria tritici
Plasmopara viticola = assay: Leaf disk assay, Plasmopara viticola (downy mildew of grapevine), preventive; format: in vivo; settings: foliar, 168 h, grapevine leaf disks, assessed seven days after inoculation, read-out: control of fungal infection, Plasmopara viticola
Pythium ultimum = assay: Growth inhibition in potato dextrose broth, Pythium ultimum (damping off), photometric; format: cell-based; settings: Globisporangium ultimum, 24° C., 48 hours, read-out: control of fungal infection, Pythium ultimum
Outline: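 Growth inhibition was read photometrically at 48 hours after incubation at 24° C. Test compound was diluted from DMSO to 20 ppm in water and combined with potato dextrose broth seeded with Pythium ultimum mycelial fragments.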

[2] = system: Puccinia recondita f.sp. tritici; assay: Leaf disk assay, Puccinia recondita f.sp. tritici (wheat brown rust), preventive; format: in vivo; settings: foliar, 216 h, wheat leaf segments, assessed nine days after inoculation, read-out: control of fungal infection, Puccinia recondita f.sp. tritici
Phytophthora infestans = assay: whole plant or invertebrate; format: in vivo; settings: in Solanum lycopersicum, foliar, 96 h, read-out: control of fungal infection, Phytophthora infestans

C#Cc1cnc2ccc(OC(SC)C(=O)NC(C)(C)C#CCC)cc2c1 (stereo not shown) [Example 117]
≥ 60%: pest or weed control at 200 ppm [1] | inhibition of growth at 60 ppm (Fusarium culmorum) | pest or weed control at 200 ppm (Pyrenophora teres) | pest or weed control at 200 ppm (Septoria nodorum) | inhibition of growth at 60 ppm (Septoria tritici) | pest or weed control at 200 ppm (Plasmopara viticola) | inhibition of growth at 20 ppm (Pythium ultimum) | pest or weed control at 200 ppm [2] | pest or weed control at 200 ppm (Phytophthora infestans)

C#Cc1cnc2c(Br)cc(OC(SC)C(=O)NC(C)(C)C#CC)cc2c1 (stereo not shown) [Example 131]
≥ 60%: pest or weed control at 200 ppm [1] | inhibition of growth at 60 ppm (Fusarium culmorum) | pest or weed control at 200 ppm (Pyrenophora teres) | pest or weed control at 200 ppm (Septoria nodorum) | inhibition of growth at 60 ppm (Septoria tritici) | pest or weed control at 200 ppm (Plasmopara viticola) | inhibition of growth at 20 ppm (Pythium ultimum) | pest or weed control at 200 ppm [2] | pest or weed control at 200 ppm (Phytophthora infestans)

C#Cc1cnc2ccc(OC(SC)C(=O)NC(C)(C)C#CC)cc2c1 (stereo not shown) [Example 22]
≥ 60%: pest or weed control at 200 ppm [1] | inhibition of growth at 60 ppm (Fusarium culmorum) | pest or weed control at 200 ppm (Pyrenophora teres) | pest or weed control at 200 ppm (Septoria nodorum) | inhibition of growth at 60 ppm (Septoria tritici) | pest or weed control at 200 ppm (Plasmopara viticola) | inhibition of growth at 20 ppm (Pythium ultimum) | pest or weed control at 200 ppm [2] | pest or weed control at 200 ppm (Phytophthora infestans)

C#Cc1cnc2ccc(OC(SC)C(=O)NC(C)(C)C#CCOC)cc2c1 (stereo not shown) [Example 23]
≥ 60%: pest or weed control at 200 ppm [1] | inhibition of growth at 60 ppm (Fusarium culmorum) | pest or weed control at 200 ppm (Pyrenophora teres) | pest or weed control at 200 ppm (Septoria nodorum) | inhibition of growth at 60 ppm (Septoria tritici) | pest or weed control at 200 ppm (Plasmopara viticola) | inhibition of growth at 20 ppm (Pythium ultimum) | pest or weed control at 200 ppm [2] | pest or weed control at 200 ppm (Phytophthora infestans)

C#Cc1cnc2ccc(OC(SC)C(=O)NC(C)(C)CC)cc2c1 (stereo not shown) [Example 94]
≥ 60%: pest or weed control at 200 ppm [1] | inhibition of growth at 60 ppm (Fusarium culmorum) | pest or weed control at 200 ppm (Pyrenophora teres) | pest or weed control at 200 ppm (Septoria nodorum) | inhibition of growth at 60 ppm (Septoria tritici) | pest or weed control at 200 ppm (Plasmopara viticola) | inhibition of growth at 20 ppm (Pythium ultimum) | pest or weed control at 200 ppm [2] | pest or weed control at 200 ppm (Phytophthora infestans)

CSC(Oc1ccc2ncc(C#CCF)cc2c1)C(=O)NC(C)(C)C (stereo not shown) [Example 144]
≥ 60%: pest or weed control at 200 ppm [1] | inhibition of growth at 60 ppm (Fusarium culmorum) | pest or weed control at 200 ppm (Pyrenophora teres) | pest or weed control at 200 ppm (Septoria nodorum) | inhibition of growth at 60 ppm (Septoria tritici) | pest or weed control at 200 ppm (Plasmopara viticola) | inhibition of growth at 20 ppm (Pythium ultimum) | pest or weed control at 200 ppm (Phytophthora infestans)

C#Cc1cnc2c(Br)cc(OC(SC)C(=O)NC(C)(C)C)cc2c1 (stereo not shown) [Example 132]
≥ 60%: pest or weed control at 200 ppm [1] | inhibition of growth at 60 ppm (Fusarium culmorum) | pest or weed control at 200 ppm (Pyrenophora teres) | pest or weed control at 200 ppm (Septoria nodorum) | inhibition of growth at 60 ppm (Septoria tritici) | pest or weed control at 200 ppm (Plasmopara viticola) | inhibition of growth at 20 ppm (Pythium ultimum) | pest or weed control at 200 ppm [2] | pest or weed control at 200 ppm (Phytophthora infestans)

C#Cc1cnc2c(C)cc(OC(CC)C(=O)NC(C)(C)C)cc2c1 (stereo not shown) [Example 115]
≥ 60%: pest or weed control at 200 ppm [1] | inhibition of growth at 60 ppm (Fusarium culmorum) | pest or weed control at 200 ppm (Pyrenophora teres) | pest or weed control at 200 ppm (Septoria nodorum) | inhibition of growth at 60 ppm (Septoria tritici) | pest or weed control at 200 ppm (Plasmopara viticola) | pest or weed control at 200 ppm [2] | pest or weed control at 200 ppm (Phytophthora infestans)

C#Cc1cnc2c(Br)cc(OC(SC)C(=O)NC(C)(C)C#C)cc2c1 (stereo not shown) [Example 130]
≥ 60%: pest or weed control at 200 ppm [1] | inhibition of growth at 60 ppm (Fusarium culmorum) | pest or weed control at 200 ppm (Pyrenophora teres) | pest or weed control at 200 ppm (Septoria nodorum) | inhibition of growth at 60 ppm (Septoria tritici) | pest or weed control at 200 ppm (Plasmopara viticola) | inhibition of growth at 20 ppm (Pythium ultimum) | pest or weed control at 200 ppm [2] | pest or weed control at 200 ppm (Phytophthora infestans)

C#Cc1cnc2c(Cl)cc(OC(SC)C(=O)NC(C)(C)C)cc2c1 (stereo not shown) [Example 18]
≥ 60%: pest or weed control at 200 ppm [1] | inhibition of growth at 60 ppm (Fusarium culmorum) | pest or weed control at 200 ppm (Pyrenophora teres) | pest or weed control at 200 ppm (Septoria nodorum) | inhibition of growth at 60 ppm (Septoria tritici) | pest or weed control at 200 ppm (Plasmopara viticola) | inhibition of growth at 20 ppm (Pythium ultimum) | pest or weed control at 200 ppm [2] | pest or weed control at 200 ppm (Phytophthora infestans)

C#Cc1cnc2cc(F)c(OC(SC)C(=O)NC(C)(C)C)cc2c1 (stereo not shown) [Example 104]
≥ 60%: pest or weed control at 200 ppm [1] | inhibition of growth at 60 ppm (Fusarium culmorum) | pest or weed control at 200 ppm (Pyrenophora teres) | pest or weed control at 200 ppm (Septoria nodorum) | inhibition of growth at 60 ppm (Septoria tritici) | pest or weed control at 200 ppm (Plasmopara viticola) | inhibition of growth at 20 ppm (Pythium ultimum) | pest or weed control at 200 ppm [2] | pest or weed control at 200 ppm (Phytophthora infestans)

C#Cc1cnc2cc(F)c(OC(SC)C(=O)NC(C)(C)COC)cc2c1 (stereo not shown) [Example 108]
≥ 60%: pest or weed control at 200 ppm [1] | inhibition of growth at 60 ppm (Fusarium culmorum) | pest or weed control at 200 ppm (Pyrenophora teres) | pest or weed control at 200 ppm (Septoria nodorum) | inhibition of growth at 60 ppm (Septoria tritici) | pest or weed control at 200 ppm (Plasmopara viticola) | pest or weed control at 200 ppm [2] | pest or weed control at 200 ppm (Phytophthora infestans)

C#CCOCC#CC(C)(C)NC(=O)C(Oc1ccc2ncc(C#C)cc2c1)SC (stereo not shown) [Example 24]
≥ 60%: pest or weed control at 200 ppm [1] | inhibition of growth at 60 ppm (Fusarium culmorum) | pest or weed control at 200 ppm (Pyrenophora teres) | pest or weed control at 200 ppm (Septoria nodorum) | inhibition of growth at 60 ppm (Septoria tritici) | pest or weed control at 200 ppm (Plasmopara viticola) | inhibition of growth at 20 ppm (Pythium ultimum) | pest or weed control at 200 ppm [2] | pest or weed control at 200 ppm (Phytophthora infestans)

C#CCOCC(C)(C)NC(=O)C(Oc1cc2cc(C#C)cnc2cc1F)SC (stereo not shown) [Example 109]
≥ 60%: pest or weed control at 200 ppm [1] | inhibition of growth at 60 ppm (Fusarium culmorum) | pest or weed control at 200 ppm (Pyrenophora teres) | pest or weed control at 200 ppm (Septoria nodorum) | inhibition of growth at 60 ppm (Septoria tritici) | pest or weed control at 200 ppm (Plasmopara viticola) | pest or weed control at 200 ppm [2] | pest or weed control at 200 ppm (Phytophthora infestans)

C#Cc1cnc2c(C)cc(OC(SC)C(=O)NC(C)(C#C)COC)cc2c1 (stereo not shown) [Example 135]
≥ 60%: pest or weed control at 200 ppm [1] | pest or weed control at 200 ppm (Pyrenophora teres) | pest or weed control at 200 ppm (Septoria nodorum) | inhibition of growth at 60 ppm (Septoria tritici) | pest or weed control at 200 ppm (Plasmopara viticola) | inhibition of growth at 20 ppm (Pythium ultimum) | pest or weed control at 200 ppm [2] | pest or weed control at 200 ppm (Phytophthora infestans)

C#CCOCC(C)(C)NC(=O)C(Oc1cc(Cl)c2ncc(C#C)cc2c1)SC (stereo not shown) [Example 76]
≥ 60%: pest or weed control at 200 ppm [1] | pest or weed control at 200 ppm (Pyrenophora teres) | pest or weed control at 200 ppm (Septoria nodorum) | inhibition of growth at 60 ppm (Septoria tritici) | pest or weed control at 200 ppm (Plasmopara viticola) | inhibition of growth at 20 ppm (Pythium ultimum) | pest or weed control at 200 ppm [2] | pest or weed control at 200 ppm (Phytophthora infestans)

C#Cc1cnc2c(C)cc(OC(SC)C(=O)NC(C)(C)COCC)cc2c1 (stereo not shown) [Example 95]
≥ 60%: pest or weed control at 200 ppm [1] | pest or weed control at 200 ppm (Pyrenophora teres) | pest or weed control at 200 ppm (Septoria nodorum) | inhibition of growth at 60 ppm (Septoria tritici) | pest or weed control at 200 ppm (Plasmopara viticola) | inhibition of growth at 20 ppm (Pythium ultimum) | pest or weed control at 200 ppm [2] | pest or weed control at 200 ppm (Phytophthora infestans)

C#Cc1cnc2ccc(OC(SC)C(=O)NC(C)(C)CF)cc2c1 (stereo not shown) [Example 99]
≥ 60%: pest or weed control at 200 ppm [1] | inhibition of growth at 60 ppm (Fusarium culmorum) | pest or weed control at 200 ppm (Pyrenophora teres) | pest or weed control at 200 ppm (Septoria nodorum) | inhibition of growth at 60 ppm (Septoria tritici) | pest or weed control at 200 ppm (Plasmopara viticola) | pest or weed control at 200 ppm [2] | pest or weed control at 200 ppm (Phytophthora infestans)

C#Cc1cnc2ccc(OC(SC)C(=O)NC3(C)CCC3)cc2c1 (stereo not shown) [Example 202]
≥ 60%: pest or weed control at 200 ppm [1] | pest or weed control at 200 ppm (Pyrenophora teres) | pest or weed control at 200 ppm (Septoria nodorum) | inhibition of growth at 60 ppm (Septoria tritici) | pest or weed control at 200 ppm (Plasmopara viticola) | inhibition of growth at 20 ppm (Pythium ultimum) | pest or weed control at 200 ppm [2] | pest or weed control at 200 ppm (Phytophthora infestans)

C#Cc1cnc2c(C)cc(OC(CC)C(=O)NC(C)(C)C#C)cc2c1 (stereo not shown) [Example 114]
≥ 60%: pest or weed control at 200 ppm [1] | inhibition of growth at 60 ppm (Fusarium culmorum) | pest or weed control at 200 ppm (Pyrenophora teres) | pest or weed control at 200 ppm (Septoria nodorum) | inhibition of growth at 60 ppm (Septoria tritici) | pest or weed control at 200 ppm (Plasmopara viticola) | pest or weed control at 200 ppm [2] | pest or weed control at 200 ppm (Phytophthora infestans)

C#Cc1cnc2ccc(OC(SC)C(=O)NC(C)(C)C#N)cc2c1 (stereo not shown) [Example 82]
≥ 60%: pest or weed control at 200 ppm [1] | pest or weed control at 200 ppm (Pyrenophora teres) | pest or weed control at 200 ppm (Septoria nodorum) | inhibition of growth at 60 ppm (Septoria tritici) | pest or weed control at 200 ppm (Plasmopara viticola) | inhibition of growth at 20 ppm (Pythium ultimum) | pest or weed control at 200 ppm [2] | pest or weed control at 200 ppm (Phytophthora infestans)
